Tests used:
[1] = tested on: 5HT2A receptor-expressing HEK293 cells; experiment: High-speed luminescence imaging of changes in calcium ion concentrations upon 5HT stimulation (Experiment 11); assay type: cell-based, human; conditions: 5HT 10 μM; cpSfRE55-CaM in 5HT2A receptor-expressing HEK293 cells; images every 500 milliseconds; FIG. 15
Procedure: The cells cultured in Procedure 1 were seeded onto 35 mm-diameter glass bottom dishes at a density of 2×10^5 cells/dish and cultured overnight in a 5% CO2 incubator. The human 5HT2A receptor expression plasmid pcDNA/5HT2AR and luminescent calcium indicator expression plasmid were transferred into the cells by electroporation using NEPA21 and the cells were cultured overnight in a 5% CO2 incubator.
2 mM luciferin (Promega) was added to the culture medium of the culture obtained in Procedure 2 and the culture was allowed to stand for 1 h. The culture dish was loaded onto a luminescence microscope (LV-200, Olympus) and time-lapse image capturing was performed to acquire luminescence images at an interval of 500 milliseconds. Luminescence observation conditions were as follows: magnification of objective lens:=40×, exposure time=200 milliseconds, and binning=2×2. Using an EM-CCD camera (iXon, Andor), luminescence images were taken and transferred to a personal computer. […]
Regions of interest (ROIs) were designated for each luminescence image captured in Procedure 3 and for each luminescence image captured in Procedure 4. […] The luminescence images were analyzed using MetaMorph software (Universal imaging). […]

HEK293 cells [2] = experiment: Luminescence measurement of changes in intracellular calcium level in HEK293 cells upon ATP stimulation (Experiment 9); assay type: cell-based; conditions: ATP 200 μM, luciferin 2 mM, luminometer, FIG. 13
Procedure: HEK293 cells (1×10^6 cells) were collected by centrifugation and luminescent calcium indicator expression vectors were transferred into the cells by electroporation using NEPA21. The transfected HEK293 cells were seeded into a 24-well multiplate at a concentration of 1×10^5 cells/well and cultured overnight in a 5% CO2 incubator.
After rinsing the cells with CO2-independent culture medium twice, 200 μL of CO2-independent culture medium containing D-luciferin (final conc.=2 mM) was added and the plate was allowed to stand for 15 min.
The plate was placed in a luminometer (Luminescencer-JNR II, ATTO), and luminescence intensity for pre- and post-ATP (200 μM) stimulation was measured over time.
Luminescent calcium indicators were transferred into HEK293 cells and the cells were cultured overnight. The cells were rinsed with CO2-independent culture medium, luciferin was added to the CO2-independent culture medium to a final luciferin concentration of 2 mM, and the culture was allowed to stand for 15 min, followed by measurement of luminescence intensity using a luminometer.

HEK293 cells [3] = experiment: Luminescence-based calcium imaging in HEK293 cells upon ATP stimulation (Experiment 10); assay type: cell-based; conditions: FIG. 14
Procedure: HEK293 cells were acquired from ATCC and cultured in a 5% CO2 incubator in Earle's MEM culture medium (GIBCO) supplemented with 10% Fetal Bovine Serum and 1× Nonessential amino acids.
The cultured HEK293 cells were seeded onto 35 mm-diameter glass bottom dishes at a density of 2×10^5 cells/dish and cultured overnight in a 5% CO2 incubator. Luminescent calcium indicator expression plasmids were transferred into the HEK293 cells by electroporation using NEPA21 and cultured overnight in a 5% CO2 incubator.
2 mM luciferin (Wako Pure Chemical industries, Ltd.) was added to the culture medium and the culture was allowed to stand for 1 h. The culture dish was then loaded onto a luminescence microscope (LV-200, Olympus) and time-lapse image capturing was performed to acquire luminescence images at an interval of 10 sec. Luminescence observation conditions were as follows: magnification of objective lens=40×, exposure time=5 sec, and binning=1×1. An EM-CCD camera (iXon, Andor) was used as a CCD camera, and luminescence images were transferred to a personal computer configured as an image analyzer.
Changes in luminescence intensity of luminescent calcium indicators in response to changes in intracellular calcium ion concentration upon addition of ATP in culture medium were imaged. […] The luminescence images were transferred to the PC every 10 sec. […]

E. coli (JM109 (DE3)) = experiment: Luminescence activity of permutated and heterologous permutated firefly luciferase expressed in E. coli (Experiments 1 and 2); assay type: cell-based; conditions: Bright-Glo, 5 min room temperature, counts per 10 sec, FIG. 3
Procedure: The pRSET vector containing the permutated firefly luciferase gene was transformed into JM109(DE3) strain of E. coli and cultured overnight at 37° C. To 50 μL of culture was added 50 μL of Bright-Glo (Promega) and the culture was allowed to stand for 5 min at room temperature. Luminescence level for 10 sec was then measured using a luminometer (Luminescencer-JNR II, ATTO).
The prepared expression vector was transformed into E. coli (JM109 (DE3)) and cultured overnight in LB medium. To 50 μL of culture was added an equal volume of Bright-Glo and the culture was allowed to stand for 5 min at room temperature. Luminescence level of the reaction solution was reported as counts per 10 sec measured with the luminometer. As a control, permutated luciferase (GL4) derived from the North American firefly (Pholinus pyralis) luciferase was used. In FIG. 3, luminescence activities of GL4-derived and OKI-derived permutated luciferases are shown in terms of relative values with the activity of GL4 being 1. The vertical axis in FIG. 3 represents relative luminescence level.
The pRSET vector containing the heterologous permutated luciferase gene was transformed into JM109(DE3) strain of E. coli and cultured overnight at 37° C. in LB medium. […] Luminescence level for 10 sec was then measured using a luminometer (Luminescencer-JNR II, ATTO). […]

NCCc1c[nH]c2ccc(O)cc12 [5HT, Serotonin]
luminescence intensity response of indicator-expressing cells to 5HT stimulation [1]: cells that exhibited oscillation, as well as cells that exhibited a transient reduction in luminescence intensity

Nc1ncnc2c1ncn2[C@@H]1O[C@H](COP(=O)(O)OP(=O)(O)OP(=O)(O)O)[C@@H](O)[C@H]1O [ATP, adenosine tri phosphate]
change in luminescence intensity of luminescent calcium indicator upon ATP stimulation (HEK293 cells [2]): reductions in luminescence intensity
time course of luminescence intensity change caused by ATP stimulation (HEK293 cells [3]): transient
luminescence intensity of indicator-expressing cells after ATP stimulation (single-cell imaging) (HEK293 cells [3]; luciferin 2 mM, exposure 5 sec): decreased levels of luminescence intensity

B1: OKI359: C-terminal fragment, residues 359 to 562 of OKI-derived luciferase; names the permutated luciferase made with OKI-N (protein)
chain: KPGACGKVAPFFSAKIVDLDTSKTLGVNQRGELCLKGPMIMKGYVNNPEATNALIDKDGWLHSGDLAYYDKDGHFFIVDRLKSLIKYQGYQVPPAELESILLQHPFIFDAGVAGIPDADAGELPAAVVVLEEGKTMTEQEVMDYVAGQVTASKRLRGGVKFVDEVPKGLTGKIDSRKIREMLTMGKKSKL
luminescence activity (relative luminescence level, GL4 being 1) (E. coli (JM109 (DE3))): high levels of luminescence activity

Reference: patent US20170183637A1, “SPLIT RECOMBINANT LUCIFERASE, AND ANALYSIS METHOD USING THEREOF” (OLYMPUS CORPORATION, priority 2014, published 2017)
